According to patent US9173892B2, “Acadesine derivatives, products and compositions including same, therapeutic uses thereof, and methods for synthesizing same” (Universite Nice Sophia Antipolis, priority 2011, dated 2015):
Where two headings read alike, the source gives them in different places.

How the values were obtained:
[1] = tested on: imatinib-resistant CML K562 cells; assay: tumor growth of imatinib-resistant CML K562 cells in athymic nude mice; assay type: in vivo; settings: 1 mg/kg; for Mean weight of the mice on the day of sacrifice: control group 18.63, in g (unit assumed); for Mass of tumors at the end of the campaign (% vs. control): sum of tumor masses on the day of sacrifice
Method: The three compounds (86, 196 and 236) were tested at 1 mg/kg on the tumor growth of imatinib-resistant CML K562 cells in athymic nude mice. The tumors of the mice of each group are weighed on the day of sacrifice, and the sum of these masses constitutes a tumor growth index. This index is expressed as a percentage with respect to the growth of the control group (second line).

K562 cells [2] = assay: cell viability (XTT) of imatinib-sensitive K562 cells; assay type: cell-based, human; settings: K562; for viability at 500 µM / IC50: Homo sapiens, XTT; for viability at 500 µM: 0.5 mM, read-out: percentage of viable cells; for IC50: dose-response 5, 10, 25 and 50 μM; for efficacy in dose-response experiment (number of viable cells): 5, 10, 25 and 50 μM, compounds effective at concentrations as low as 5 μM
Method: (§1) The K562 leukemic cell line is obtained from the pleural effusion of a patient with CML. This line is a good model for studying this disease. […] The K562 and ImaR cells are cultivated at 37° C. under 5% CO2 in an RPMI 1640 medium containing 5% fetal bovine serum and supplemented with sodium pyruvate and antibiotics (penicillin-streptomycin).
(§2) FIGS. 1 to 4 reflect the study of the cell viability.
(§3) After the addition of XTT reagent, the absorbance is measured at 490 nm.
as §3, §3
After adding XTT reagent, the absorbance is measured at 490 nm.

ImaR cells [3] = assay: cell viability (XTT) of imatinib-resistant ImaR cells; assay type: cell-based, human; settings: for efficacy in dose-response experiment (number of viable cells): 5, 10, 25 and 50 μM, compounds effective at concentrations as low as 5 μM; for viability at 500 µM / IC50: Homo sapiens, XTT; for viability at 500 µM: 0.5 mM, 24 hours, read-out: percentage of viable cells; for IC50: dose-response 5, 10, 25 and 50 μM, 24 or 48 hours, Example 1 (Table 1 codes)
Method: as §1, §2, §3, §3

K562 cells [4] = assay: flow cytometry analysis of the cell cycle, K562 cells; assay type: cell-based, human; settings: for proportion of cells in the G2/M phase: 24 hours, 82, 86, 112 at 2.5 μM, 15, 23, 191, 49 at 10 μM
Method: The x-axis of the graph of FIG. 9 corresponds to the quantity of DNA marked with propidium iodide while the y-axis corresponds to the number of cells. […] The nuclei are marked with propidium iodide, then the proportion of cells in the different phases of the cell cycle (subG1, G0/G1, S, G2/M) is determined.

ImaR cells [5] = assay: flow cytometry analysis of the cell cycle, ImaR cells; assay type: cell-based, human; settings: for proportion of cells in the G2/M phase: 24 hours, 82, 86, 112 at 2.5 μM, 15, 23, 191, 49 at 10 μM
Method: The x-axis of the graph of FIG. 9 corresponds to the quantity of DNA marked with propidium iodide while the y-axis corresponds to the number of cells. […] The nucleii are marked with propidium iodide, then the proportion of cells in the different phases of the cell cycle (subG1, G0/G1, S, G2/M) is determined.

K562 cells [6] = assay: western blot of apoptosis and autophagy markers, K562 cells; assay type: cell-based, human; settings: for expression of p62/SQSTM1 / LC3 cleavage (LC3-I into LC3-II): AICAR 1 mM; for expression of p62/SQSTM1: 82, 86, 112 at 2.5 μM, 15, 23, 191 at 10 μM; for LC3 cleavage (LC3-I into LC3-II): 82, 86 at 2.5 μM, 15, 23, 191, 49 at 10 μM; for type of programmed cell death induced: conclusion of Example 1, K562 and ImaR cells
Method: (§4) The cells are lyzed and 35 μg of proteins are separated by SDS-PAGE (12 or 14% polyacrylamide gel) and analyzed by western blot with antibodies specific to each of the markers.

ImaR cells [7] = assay: western blot of apoptosis and autophagy markers, ImaR cells; assay type: cell-based, human; settings: 24 hours; for expression of p62/SQSTM1: AICAR 1 mM, 82, 86, 112 at 2.5 μM, 15, 23, 191 at 10 μM; for LC3 cleavage (LC3-I into LC3-II): AICAR 1 mM, 82, 86 at 2.5 μM, 15, 23, 191, 49 at 10 μM
Method: as §4

caspase-9 [8] = assay: caspase-9 activity (Ac-LEHD-AMC) in K562 cells; assay type: cell-based, human
Method: (§5) The cells are lyzed and the caspase-9 activities are measured using 10 μg of proteins and Ac-LEHD-AMC. The fluorescence emission at 460 nm resulting from the release of AMC is then recorded.

caspase-9 [9] = assay: caspase-9 activity (Ac-LEHD-AMC) in ImaR cells; assay type: cell-based, human; settings: 24 hours, imatinib 3 μM, 112 2.5 μM, 15 and 23 10 μM
Method: as §5

[10] = 24 or 48 hours, Example 1 (Table 1 codes)
[11] = 48 hours, Example 2 (Table 2 codes)
[12] = 24 hours, imatinib 3 μM, 112 at 2.5 μM, 15, 23, 49 at 10 μM

SMILES: CCOC(=O)C#Cc1c(C(=O)OCC)nnn1C1OC(COC(C)=O)C(OC(C)=O)C(OC(C)=O)C1OC(C)=O [Compound 196, 1′-(4-ethoxycarbonyl-5-ethyl propiolate-[1,2,3]-triazol-1-yl)-2′,3′,4′,6′-tetra-O-acetyl-β-D-glucopyranose]
- inhibition of the tumor mass [1]: around 60%
- Mean weight of the mice on the day of sacrifice [1]: 20.5
- Mass of tumors at the end of the campaign (% vs. control) [1]: 42 % vs. control

SMILES: CCOC(=O)c1nnn([C@@H]2O[C@H](COC(C)=O)[C@@H](OC(C)=O)[C@H]2OC(C)=O)c1-c1ccccc1 [Compound 86, 1′-(4-ethoxycarbonyl-5-phenyl-[1,2,3]-triazol-1-yl)-2′,3′,5′-tri-O-acetyl-β-D-ribofuranose]
- viability at 500 µM (K562 cells [2]; 24 hours): < 10%
- IC50 (K562 cells [2]; [10]): ~2.5 µM
- efficacy in dose-response experiment (number of viable cells) (K562 cells [2]): particularly effective
- efficacy in dose-response experiment (number of viable cells) (ImaR cells [3]): particularly effective
- viability at 500 µM (ImaR cells [3]): < 10%
- IC50 (ImaR cells [3]): ~2.5 µM
- proportion of cells in the G2/M phase (K562 cells [4]): increase
- proportion of cells in the G2/M phase (ImaR cells [5]): increase
- expression of p62/SQSTM1 (K562 cells [6]; K562, 24 hours): increase in the expression
- LC3 cleavage (LC3-I into LC3-II) (K562 cells [6]; K562, 24 hours): cleaved
- type of programmed cell death induced (K562 cells [6]): autophagy alone
- expression of p62/SQSTM1 (ImaR cells [7]): increase in the expression
- LC3 cleavage (LC3-I into LC3-II) (ImaR cells [7]): cleaved
- Mean weight of the mice on the day of sacrifice [1]: 18.43
- Mass of tumors at the end of the campaign (% vs. control) [1]: 69.6 % vs. control

SMILES: CCCCCCCC#Cc1c(CCCCCCC)nnn1[C@@H]1O[C@H](COC(C)=O)[C@@H](OC(C)=O)[C@H]1OC(C)=O [Compound 176, 1′-(4-heptyl-5-(non-1-yn-1-yl)-[1,2,3]-triazol-1-yl)-2′,3′,5′-tri-O-acetyl-β-D-ribofuranose]
- viability at 500 µM (K562 cells [2]; 24 hours): < 10%
- viability at 500 µM (ImaR cells [3]): < 10%

SMILES: CCCCCCC(=O)c1c(C(=O)OCC)nnn1[C@@H]1O[C@H](COC(C)=O)[C@@H](OC(C)=O)[C@H]1OC(C)=O [Compound 30, 1′-(4-ethoxycarbonyl-5-heptanoyl-[1,2,3]-triazol-1-yl)-2′,3′,5′-tri-O-acetyl-β-D-ribofuranose]
- IC50 (K562 cells [2]; [11]): ~5 µM

SMILES: CCOC(=O)c1nnn([C@@H]2O[C@H](CO)[C@H]3OC(C)(C)O[C@H]32)c1-c1cccs1 [Compound 236, 1′-(4-ethoxycarbonyl-5-(2-thienyl)-[1,2,3]-triazol-1-yl)-2′,3′-O-isopropylidene-β-D-ribofuranose]
- Mean weight of the mice on the day of sacrifice [1]: 20.14
- Mass of tumors at the end of the campaign (% vs. control) [1]: 60.3 % vs. control

SMILES: C#Cc1c(C(=O)OC)nnn1[C@@H]1O[C@H](CO)[C@@H](O)[C@H]1O [Compound 29, 1′-(4-methoxycarbonyl-5-ethynyl-[1,2,3]-triazol-1-yl)-β-D-ribofuranose]
- viability at 500 µM (K562 cells [2]; [11]): < 20%

SMILES: CCOC(=O)C#Cc1c(C(=O)OCC)nnn1Cc1ccc2ccccc2c1 [Compound 25]
- viability at 500 µM (K562 cells [2]; 24 hours): < 10%
- viability at 500 µM (ImaR cells [3]): < 10%

SMILES: CCOC(=O)c1nnn([C@@H]2O[C@H](COC(C)=O)[C@@H](OC(C)=O)[C@H]2OC(C)=O)c1C(=O)c1ccc(C)cc1 [Compound 32, 1′-(4-ethoxycarbonyl-5-p-toluoyl-[1,2,3]-triazol-1-yl)-2′,3′,5′-tri-O-acetyl-β-D-ribofuranose]
- viability at 500 µM (K562 cells [2]; [11]): < 20%

SMILES: CCOC(=O)c1nnn([C@@H]2O[C@H](COC(C)=O)[C@@H](OC(C)=O)[C@H]2OC(C)=O)c1Cl [Compound 15, 1′-(4-ethoxycarbonyl-5-chloro-[1,2,3]-triazol-1-yl)-2′,3′,5′-tri-O-acetyl-β-D-ribofuranose]
- viability at 500 µM (K562 cells [2]; 24 hours): < 10%
- IC50 (K562 cells [2]; [10]): ~10 µM
- efficacy in dose-response experiment (number of viable cells) (K562 cells [2]): particularly effective
- efficacy in dose-response experiment (number of viable cells) (ImaR cells [3]): particularly effective
- viability at 500 µM (ImaR cells [3]): < 10%
- IC50 (ImaR cells [3]): ~10 µM
- proportion of cells in the G2/M phase (K562 cells [4]): increase
- cells in phase G0/G1 (K562 cells [4]; [12]): reduction
- cells in the subG1 phase (K562 cells [4]; [12]): very pronounced accumulation
- proportion of cells in the G2/M phase (ImaR cells [5]): increase
- cells in phase G0/G1 (ImaR cells [5]; [12]): reduction
- cells in the subG1 phase (ImaR cells [5]; [12]): very pronounced accumulation
- caspase-9 activity (caspase-9 [8]; K562, 24 hours, imatinib 3 μM, 112 2.5 μM, 15 and 23 10 μM): activation
- pathway relaying the induced apoptosis (caspase-9 [8]; conclusion of Example 1, K562 and ImaR cells): intrinsic pathway
- caspase-9 activity (caspase-9 [9]): activation
- expression of p62/SQSTM1 (K562 cells [6]; K562, 24 hours): increase in the expression
- LC3 cleavage (LC3-I into LC3-II) (K562 cells [6]; K562, 24 hours): cleaved
- PARP cleavage (fragment at 85 kDa) (K562 cells [6]; K562, 24 hours, imatinib 3 μM, 112 at 2.5 μM, 15, 23, 49 at 10 μM): appearance of the characteristic cleavage fragment at 85 kDa
- type of programmed cell death induced (K562 cells [6]): combination of the two types of mechanisms
- expression of p62/SQSTM1 (ImaR cells [7]): increase in the expression
- LC3 cleavage (LC3-I into LC3-II) (ImaR cells [7]): cleaved
- PARP cleavage (fragment at 85 kDa) (ImaR cells [7]; imatinib 3 μM, 112 at 2.5 μM, 15, 23, 49 at 10 μM): appearance of the characteristic cleavage fragment at 85 kDa

SMILES: OC[C@H]1O[C@@H](n2nnc(-c3ccccc3)c2I)[C@H](O)[C@@H]1O [Compound 24, 1′-(4-phenyl-5-iodo-[1,2,3]-triazol-1-yl)-β-D-ribofuranose]
- IC50 (K562 cells [2]; [11]): ~5 µM

SMILES: COC(=O)c1nnn([C@@H]2O[C@H](CO)[C@@H](O)[C@H]2O)c1I [Compound 21, 1′-(4-methoxycarbonyl-5-iodo-[1,2,3]-triazol-1-yl)-β-D-ribofuranose]
- viability at 500 µM (K562 cells [2]; [11]): < 20%
- IC50 (K562 cells [2]; [11]): ~5 µM

SMILES: CCOC(=O)c1nnn(Cc2ccc3ccccc3c2)c1I [Compound 23]
- viability at 500 µM (K562 cells [2]; 24 hours): < 10%
- IC50 (K562 cells [2]; [10]): ~10 µM
- IC50 (K562 cells [2]; [11]): ~5 µM
- viability at 500 µM (ImaR cells [3]): < 10%
- IC50 (ImaR cells [3]): ~10 µM
